Source: patent EP4741374A1, “TREPROSTINIL DERIVATIVE, AND PREPARATION METHOD THEREFOR AND USE THEREOF” (CF PharmTech HongKong Limited, priority 2023, dated 2025)

What was measured:
[1] = biological target: T1, EP2 receptor (Homo sapiens, UniProt P43116); assay: Competitive binding to EP2 receptor against radiolabeled ligand 3H-PGE2; details: 8 concentrations from 10 µM, 10-fold dilutions
T1 construct: purchased Merck HTS185M
Protocol: This experiment was carried out in 96-well plates to evaluate the binding affinity of the compounds of the present invention (Ia-1, Ia-2 and Ia-3) to the prostaglandin EP2 receptor by testing their ability of competitive binding to the EP2 receptor with the radiolabeled ligand ^3H-PGE2. Treprostinil was used as control. MicroBeta2 was used to detect the number of ^3H captured, and Prism software was used to analyze data. The EP2 film (Merck, Cat# HT[…], batch number 2121326) was diluted with a buffer (50 mM Hepes, PH=7.4, 5 mM MgCl2, 1 mM CaCl2, 0.5% BSA) to a final concentration of 75 μg/mL. ^3H-PGE2 was diluted to 15 nM. Test compound and control compound solutions with an initial concentration of 10 μM were prepared, and subjected to 10-fold continuous gradient dilution, with a total of 8 concentrations for testing. 5%DMSO was used as a solvent control group. 1 μL of each compound solution was added into a corresponding position in the 96-well test plate, and each well was added with 50 μL of the EP2 film (about 3.75 μg/well), and added with 50 μ L of ^3H-PGE2. Then, the well plate was sealed, and incubated with shaking at 300 rpm at room temperature for 2 hours. After finishing the incubation, GF/C plates were filtered with Perkin Elmer Filtermate Harvester, and then each plate was washed with cold eluent for 4 times, and dried at 50°C for 1 hour. After drying, bottoms of wells of the filter plate were sealed with a PerkinElmer Unifilter-96 backing tape. 50 μL of Perkin Elmer Microscint O was added. The top of the filter plate was sealed with Perkin Elmer TopSeal-A sealing film. The number of ^3H captured was detected by MicroBeta2.

[2] = biological target: T2, IP receptor (Homo sapiens, UniProt P43119); assay: In-vitro agonist activity on IP receptor, FLIPR calcium test in IP/HEK293 cells; format: cell-based; details: 10 concentrations, 10-fold dilutions
T2 construct: host or cells: HEK293 (IP/HEK293 cell line)
Protocol: The specific method is as follows: The IP/HEK293 cell line was provided by WuXi AppTec (Shanghai) Co., Ltd. Well-grown IP/HEK293 cells were taken out from the incubator, the culture solution was aspirated, the cells were washed with D-PBS and digested with trypsin EDTA, and then added with a cell culture solution, and the cells were fully suspended by repeated pipetting. The cells were centrifuged at room temperature, the supernatant was aspirated, a culture medium was added, and the cells were resuspended by repeated pipetting with a sterile pipette. After counting living cells with Vi-CELL™, 20 µL (20,000 cells/well) of cell suspension was added to a 384-well cell culture plate and incubated in a 5% CO2 incubator at 37°C overnight. 1 mL of FLIPR test buffer was added with 77 mg of probenecid to prepare 250 mM probenecid solution. After thawing a bottle of 2XFluo-4 DirectTM (F10471), the bottle was added with 10 mL of FLIPR test buffer containing 500 uM AEBSF, and each 10 mL of Fluo-Direct was added with 0.2 mL of probenecid, with a final concentration of 2.5 mM. The mixture was vortexed and then allowed to stand in the dark for more than 5 minutes. Each compound was placed in a water bath at 25°C for 30 minutes. Then, these compounds were sequentially diluted 10-fold with Bravo, with a total of 10 concentrations, for testing. 750 nL of each compound was transferred to a 384-well compound plate with ECHO. Then, the compound plate was added with 30 µL of detection buffer. The 384-well cell culture plate was taken out from the incubator, the culture medium was discarded, and 20 µL of test buffer and 20 µL of 2X Fluo-4 DirectTM No-Wash loading buffer were added with a pipette. The cell culture plate was incubated in a 5% CO2 incubator at 37°C for 50 minutes and incubated at room temperature for 10 minutes. The cell culture plate, the compound plate and a tip box were placed into FLIPR, FLIPRTETRA test program was operated, 10 µL of reference compound and 10 µL of test compound were aspirated from the compound plate to the cell culture plate, fluorescence signals were read, and then data were processed. The data were analyzed by using Prism.

[3] = system: SD rats; assay: U46619-induced rat acute pulmonary arterial pressure rise model, low-dose airway nebulized administration (RVSP); format: in vivo; details: 1 hour after low-dose airway nebulized administration (about 3 µg/kg, equimolar)
From the text: In this experiment, airway nebulized administration dosages of the compounds were about 1/7 of airway nebulized administration dosages in Experimental Example 5. By using a U46619-induced rat acute pulmonary arterial pressure rise model, antihypertensive effects of the compounds of the present invention after airway nebulized administration were further verified by reducing the administration dosages.
A model construction method was the same as that described in Experimental Example 5. In this experiment, dosages of groups were as follows: the dosage of compound C16-TR group was 3 µg/kg, and the dosages of equimolar compounds Ia-1, Ia-2 and Ia-3 were 3.0 µg/kg, 3.2 µg/kg and 3.3 µg/kg respectively.
The SD rats were anesthetized and then administered by airway nebulization, and then the basic right ventricular systolic pressure (RVSP) was measured by right cardiac catheterization. The SD rats were intravenously injected with U46619 (25 µg /kg) at 1 hour after airway nebulized administration of each compound, a peak value of RVSP rise after injection with U46619 was observed and recorded, and the inhibition percentage on the RVSP rise was calculated by comparing with the basic RVSP value. The number of experimental animals in each group was 1~2.

T2 sequence (P43119 whole entry): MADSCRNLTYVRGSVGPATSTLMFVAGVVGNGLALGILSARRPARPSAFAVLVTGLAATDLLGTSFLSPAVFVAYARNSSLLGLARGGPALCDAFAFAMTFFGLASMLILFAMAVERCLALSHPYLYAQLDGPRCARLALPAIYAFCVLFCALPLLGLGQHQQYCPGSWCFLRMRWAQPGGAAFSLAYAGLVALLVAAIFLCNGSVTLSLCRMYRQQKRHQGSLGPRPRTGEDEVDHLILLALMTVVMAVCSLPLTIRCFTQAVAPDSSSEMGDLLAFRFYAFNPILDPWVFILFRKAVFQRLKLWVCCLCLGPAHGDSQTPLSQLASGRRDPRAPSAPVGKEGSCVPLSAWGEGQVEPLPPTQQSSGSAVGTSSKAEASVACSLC
T1 sequence (P43116 whole entry): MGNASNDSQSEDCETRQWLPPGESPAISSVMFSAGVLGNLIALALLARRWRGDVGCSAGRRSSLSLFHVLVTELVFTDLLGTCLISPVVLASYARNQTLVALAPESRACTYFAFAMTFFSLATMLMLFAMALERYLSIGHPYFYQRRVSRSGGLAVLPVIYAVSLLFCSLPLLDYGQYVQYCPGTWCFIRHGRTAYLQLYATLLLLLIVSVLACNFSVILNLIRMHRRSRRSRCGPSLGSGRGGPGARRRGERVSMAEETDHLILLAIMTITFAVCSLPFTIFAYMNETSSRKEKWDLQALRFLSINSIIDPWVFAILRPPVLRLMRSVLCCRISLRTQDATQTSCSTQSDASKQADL

## CCCCC[C@H](O)CC[C@@H]1[C@H]2Cc3cccc(OCC(=O)OCCCCCCCCOCCCCc4ccccc4)c3C[C@H]2C[C@H]1O [Compound Ia-2]
[1]
  binding to the EP2 receptor (competition with 3H-PGE2): no detectable binding
[2]
  agonist activity on IP receptor: no agonist activity
[3]
  Inhibition percentage on RVSP rise (%) (mean): 65.78%
